From ChEMBL document CHEMBL4229455, “Synthesis and anticancer activity of novel bisindolylhydroxymaleimide derivatives with potent GSK-3 kinase inhibition” (Bioorg Med Chem, 2018)

What was measured:
Format in all cases: functional
[1] = tested on: SNB-75; assay: Cytotoxicity against human SNB75 cells assessed as cell growth at 0.1 uM after 48 hrs by SRB assay relative to control; conditions: SNB-75, 48 h, read-out: Activity
[2] = tested on: OVCAR-3; assay: Cytotoxicity against human OVCAR3 cells assessed as cell growth at 1 uM after 48 hrs by SRB assay relative to control; conditions: OVCAR-3, 48 h, read-out: Activity
[3] = tested on: T47D; assay: Cytotoxicity against human T47D cells assessed as cell growth at 1 uM after 48 hrs by SRB assay relative to control; conditions: read-out: Activity
[4] = tested on: HCC 2998; assay: Cytotoxicity against human HCC2998 cells assessed as cell growth at 100 uM after 48 hrs by SRB assay relative to control; conditions: HCC 2998, 48 h, read-out: Activity
[5] = tested on: NCI-H460; assay: Cytotoxicity against human NCI-H460 cells assessed as cell growth at 100 uM after 48 hrs by SRB assay relative to control; conditions: NCI-H460, 48 h, read-out: Activity
[6] = tested on: 786-0; assay: Cytotoxicity against human 786-O cells assessed as cell growth at 0.01 uM after 48 hrs by SRB assay relative to control; conditions: 786-0, 48 h, read-out: Activity
[7] = tested on: SF-268; assay: Cytotoxicity against human SF268 cells assessed as cell growth at 1 uM after 48 hrs by SRB assay relative to control; conditions: SF-268, 48 h, read-out: Activity
[8] = tested on: 786-0; assay: Cytotoxicity against human 786-O cells assessed as cell growth at 0.1 uM after 48 hrs by SRB assay relative to control; conditions: 786-0, 48 h, read-out: Activity
[9] = tested on: SK-OV-3; assay: Cytotoxicity against human SKOV3 cells assessed as cell growth at 0.1 uM after 48 hrs by SRB assay relative to control; conditions: SK-OV-3, 48 h, read-out: Activity
[10] = tested on: HCT-15; assay: Cytotoxicity against human HCT15 cells assessed as cell growth at 0.1 uM after 48 hrs by SRB assay relative to control; conditions: HCT-15, 48 h, read-out: Activity
[11] = tested on: HCC 2998; assay: Cytotoxicity against human HCC2998 cells after 48 hrs by SRB assay; conditions: HCC 2998, 48 h
[12] = tested on: SK-MEL-5; assay: Cytotoxicity against human SK-MEL-5 cells assessed as cell growth at 100 uM after 48 hrs by SRB assay relative to control; conditions: SK-MEL-5, 48 h, read-out: Activity
[13] = tested on: HOP-62; assay: Cytotoxicity against human HOP62 cells after 48 hrs by SRB assay; conditions: HOP-62, 48 h; for CC50: read-out: LC50 (the source's name)
[14] = tested on: BT-549; assay: Cytotoxicity against human BT549 cells assessed as cell growth at 0.1 uM after 48 hrs by SRB assay relative to control; conditions: BT-549, 48 h, read-out: Activity
[15] = tested on: SNB-19; assay: Cytotoxicity against human SNB19 cells assessed as cell growth at 100 uM after 48 hrs by SRB assay relative to control; conditions: SNB-19, 48 h, read-out: Activity
[16] = tested on: MDA-MB-468; assay: Cytotoxicity against human MDA-MB-468 cells assessed as cell growth at 0.1 uM after 48 hrs by SRB assay relative to control; conditions: MDA-MB-468, 48 h, read-out: Activity
[17] = tested on: HL-60(TB); assay: Cytotoxicity against human HL-60(TB) cells assessed as cell growth at 100 uM after 48 hrs by SRB assay relative to control; conditions: HL-60, 48 h, read-out: Activity
[18] = tested on: RXF 393; assay: Cytotoxicity against human RXF393 cells assessed as cell growth at 0.01 uM after 48 hrs by SRB assay relative to control; conditions: RXF 393, 48 h, read-out: Activity
[19] = tested on: UACC-62; assay: Cytotoxicity against human UACC62 cells assessed as cell growth at 0.1 uM after 48 hrs by SRB assay relative to control; conditions: UACC-62, 48 h, read-out: Activity
[20] = tested on: RXF 393; assay: Cytotoxicity against human RXF393 cells assessed as cell growth at 0.1 uM after 48 hrs by SRB assay relative to control; conditions: RXF 393, 48 h, read-out: Activity
[21] = tested on: SF-295; assay: Cytotoxicity against human SF295 cells assessed as cell growth at 100 uM after 48 hrs by SRB assay relative to control; conditions: SF-295, 48 h, read-out: Activity
[22] = tested on: NCI-H23; assay: Cytotoxicity against human NCI-H23 cells after 48 hrs by SRB assay; conditions: NCI-H23, 48 h
[23] = tested on: ACHN; assay: Cytotoxicity against human ACHN cells assessed as cell growth at 0.1 uM after 48 hrs by SRB assay relative to control; conditions: read-out: Activity
[24] = tested on: BT-549; assay: Cytotoxicity against human BT549 cells after 48 hrs by SRB assay; conditions: BT-549, 48 h
[25] = tested on: NCI/ADR-RES; assay: Cytotoxicity against human NCI-ADR-RES cells after 48 hrs by SRB assay; conditions: for CC50: read-out: LC50 (the source's name)
[26] = tested on: SF-268; assay: Cytotoxicity against human SF268 cells assessed as cell growth at 0.01 uM after 48 hrs by SRB assay relative to control; conditions: SF-268, 48 h, read-out: Activity
[27] = tested on: LOX IMVI; assay: Cytotoxicity against human LOXIMVI cells assessed as cell growth at 0.01 uM after 48 hrs by SRB assay relative to control; conditions: read-out: Activity
[28] = tested on: SF-539; assay: Cytotoxicity against human SF539 cells assessed as cell growth at 0.01 uM after 48 hrs by SRB assay relative to control; conditions: SF-539, 48 h, read-out: Activity
[29] = tested on: A549; assay: Cytotoxicity against human A549 cells after 48 hrs by SRB assay; conditions: A549, 48 h; for CC50: read-out: LC50 (the source's name)
[30] = tested on: MDA-MB-468; assay: Cytotoxicity against human MDA-MB-468 cells assessed as cell growth at 100 uM after 48 hrs by SRB assay relative to control; conditions: MDA-MB-468, 48 h, read-out: Activity
[31] = tested on: SNB-19; assay: Cytotoxicity against human SNB19 cells after 48 hrs by SRB assay; conditions: SNB-19, 48 h
[32] = tested on: A549; assay: Cytotoxicity against human A549 cells assessed as cell growth at 0.01 uM after 48 hrs by SRB assay relative to control; conditions: A549, 48 h, read-out: Activity
[33] = tested on: A549; assay: Cytotoxicity against human A549 cells assessed as cell growth at 0.1 uM after 48 hrs by SRB assay relative to control; conditions: A549, 48 h, read-out: Activity
[34] = tested on: NCI-H23; assay: Cytotoxicity against human NCI-H23 cells assessed as cell growth at 0.1 uM after 48 hrs by SRB assay relative to control; conditions: NCI-H23, 48 h, read-out: Activity
[35] = tested on: NCI/ADR-RES; assay: Cytotoxicity against human NCI-ADR-RES cells assessed as cell growth at 1 uM after 48 hrs by SRB assay relative to control; conditions: read-out: Activity
[36] = tested on: KM12; assay: Cytotoxicity against human KM12 cells assessed as cell growth at 100 uM after 48 hrs by SRB assay relative to control; conditions: KM12, 48 h, read-out: Activity
[37] = tested on: SF-539; assay: Cytotoxicity against human SF539 cells assessed as cell growth at 0.1 uM after 48 hrs by SRB assay relative to control; conditions: SF-539, 48 h, read-out: Activity

Work on N#CCCCCCn1cc(C2=C(c3cn(CCCCCC#N)c4ccccc34)C(=O)N(O)C2=O)c2ccccc21 yielded a growth at 0.1 µM [1] of 72%, a growth at 1 µM [2] of 101% and a growth at 1 µM [3] of 89%. For the same compound, the growth at 100 µM [4] was 1%, the growth at 100 µM [5] was -26% and the growth at 0.01 µM [6] was 103%. The growth at 1 µM [7] was 99%, the growth at 0.1 µM [8] was 101% and the growth at 0.1 µM [9] was 88%. For the same compound, the growth at 0.1 µM [10] was 93%, the GI50 [11] was 14.2 µM and the LC50 [11] was > 100 µM. For the same compound, the TGI [11] was > 100 µM, the growth at 100 µM [12] was -80% and the GI50 [13] was 7.94 µM. The TGI [13] was > 100 µM, the CC50 [13] was > 100 µM and the growth at 0.1 µM [14] was 92%. For the same compound, the growth at 100 µM [15] was 20%, the growth at 0.1 µM [16] was 105% and the growth at 100 µM [17] was -27%. It also gave a growth at 0.01 µM [18] of 96%, a growth at 0.1 µM [19] of 94% and a growth at 0.1 µM [20] of 102%. For the same compound, the growth at 100 µM [21] was -37%, the GI50 [22] was 6.09 µM and the LC50 (concentration killing 50% of cells) [22] was > 100 µM. The TGI [22] was > 100 µM, the growth at 0.1 µM [23] was 91% and the GI50 [24] was 3.44 µM. For the same compound, the LC50 [24] was > 100 µM, the TGI [24] was 24.5 µM and the GI50 [25] was 20.4 µM. For the same compound, the TGI [25] was > 100 µM, the CC50 [25] was > 100 µM and the growth at 0.01 µM [26] was 97%. It also gave a growth at 0.01 µM [27] of 94%, a growth at 0.01 µM [28] of 94% and a GI50 [29] of 10.4 µM. The TGI [29] was > 100 µM, the CC50 [29] was > 100 µM and the growth at 100 µM [30] was -15%. The GI50 [31] was 4.36 µM, the LC50 [31] was > 100 µM and the TGI [31] was > 100 µM. The growth at 0.01 µM [32] was 100%, the growth at 0.1 µM [33] was 102% and the growth at 0.1 µM [34] was 90%. The growth at 1 µM [35] was 102%, the growth at 100 µM [36] was -23% and the growth at 0.1 µM [37] was 90%.

Compound Cn1cc(C2=C(c3cn(C)c4ncccc34)C(=O)NC2=O)c2ccccc21 has a growth at 0.1 µM [1] of 65%, a growth at 1 µM [2] of 98% and a growth at 1 µM [3] of 74%. For the same compound, the growth at 100 µM [4] was -37%, the growth at 100 µM [5] was -36% and the growth at 0.01 µM [6] was 99%. It also gave a growth at 1 µM [7] of 101%, a growth at 0.1 µM [8] of 101% and a growth at 0.1 µM [9] of 102%. The growth at 0.1 µM [10] was 103%, the GI50 [11] was 4.35 µM and the TGI [11] was 28.2 µM. For the same compound, the growth at 100 µM [12] was -94%, the GI50 [13] was 3.69 µM and the TGI [13] was 36.7 µM. For the same compound, the CC50 [13] was > 100 µM, the growth at 0.1 µM [14] was 98% and the growth at 100 µM [15] was -11%. The growth at 0.1 µM [16] was 96%, the growth at 100 µM [17] was -28% and the growth at 0.01 µM [18] was 98%. For the same compound, the growth at 0.1 µM [19] was 97%, the growth at 0.1 µM [20] was 98% and the growth at 100 µM [21] was -20%. It also gave a GI50 [22] of 4.18 µM, a TGI [22] of 26.7 µM and a growth at 0.1 µM [23] of 99%. The GI50 [24] was 2.36 µM, the TGI [24] was 8.09 µM and the GI50 [25] was 5.19 µM. For the same compound, the TGI [25] was 44 µM, the CC50 [25] was > 100 µM and the growth at 0.01 µM [26] was 103%. It also gave a growth at 0.01 µM [27] of 101%, a growth at 0.01 µM [28] of 99% and a GI50 [29] of 3.49 µM. The TGI [29] was 33.2 µM, the CC50 [29] was > 100 µM and the growth at 100 µM [30] was -56%. For the same compound, the GI50 [31] was 6.31 µM, the TGI [31] was 61.1 µM and the growth at 0.01 µM [32] was 99%. The growth at 0.1 µM [33] was 94%, the growth at 0.1 µM [34] was 95% and the growth at 1 µM [35] was 91%. The growth at 100 µM [36] was -86% and the growth at 0.1 µM [37] was 107%.
